Experimental findings from US7473524B2, “Mutational profiles in HIV-1 protease correlated with phenotypic drug resistance” (priority 2002, dated 2009) are described below.

SMILES strings stand for the structures. A value given as a limit tells only on which side of the number the result lay.

Format in all cases: cell-based
The subject of assay [1] is HIV-1/LAI. The assay can be described thus: Antiviral activity in acutely infected MT4 cells, wild-type reference strain. Particulars: for EC50: Human immunodeficiency virus 1, wild-type HIV-1/LAI, no selection, MT4 cells, read-out: median(EC50 (μM)); for Fold resistance: wild-type HIV-1/LAI (reference), ratio of EC50 to wild type. How it is done: (§1) Determination of the antiviral activity of a compound was done as described in Pauwels R. et al. (J Virol Methods 1988; 20(4):309-21). Various concentrations of the test compounds were brought into each well of a flat-bottom microtiter plate. Subsequently, HIV and MT4 cells were added to a final concentration of 200-250 50% cell culture infectious doses (CCID50)/well and 30,000 cells/well, respectively. After 5 days of incubation (37° C., 5% CO2), the cytopathic effect of the replicating virus was determined by the tetrazolium colorimetric MTT method. The dose protecting 50% of the cells from virus cytopathic effect was defined as the EC50, while the dose achieving 90% protection was defined as the EC90.
(§2) The reporter gene assay used MT4-LTR-EGFP cells. Upon infection by HIV-1, the expression of the viral tat product increases transcription from the HIV-1 LTR promoter, leading to high-level expression of the reporter gene product. The assay procedure was similar to the CPE assay except for the end reading of the assay, which was performed on day 3 by measuring the relative fluorescence of treated cultures and comparing this with the relative fluorescence of untreated cultures. The EC50 or the EC90 of a compound was defined as the concentration that inhibited the relative fluorescence by 50% or 90% respectively.
(§3) The in vitro antiviral activity of compound 1 and current reverse transcriptase inhibitors against the selected strains was evaluated in acutely infected MT4 cells. Median EC50 values together with the fold change in resistance (expressed as a ration of EC50) as compared to wild type (FC) are reported.

Assay [2] relates to HIV-1/LAI-derived strain I031L, A062A/V, Y181C, G190E, T386A. The experiment in a line: Antiviral activity in MT4 cells, low MOI strain selected at 15.000 μM, day 42. The settings on record: for Fold resistance: Comp. 1 15.000 μM, vs wild type; for EC50: Human immunodeficiency virus 1, MT4, Comp. 1 15.000 μM, read-out: median(EC50 (μM)). How it is done: as §1, §2
(§4) MT4-LTR-EGFP cells were infected at a multiplicity of infection (MOI) of 0.01 to 0.001 CCID50/cell in the presence of inhibitor. The cultures were sub-cultivated and scored microscopically on virus-induced fluorescence and cytopathogenicity every 3-4 days. The cultures were sub-cultivated in the presence of the same compound concentration until signs of virus replication were observed. The escaping virus was further cultivated in the presence of the same inhibitor concentration in order to enrich the population in resistant variants. If full virus breakthrough was observed the supernatant was collected and stored (new virus strain). Afterwards, the same virus was challenged with a higher compound concentration in order to select variants able to grow in the presence of as high as possible inhibitor concentrations. From the new viruses, a virus stock was grown in the absence of inhibitor.
as §3

For assay [3], the system named is HIV-1/LAI-derived strain I031L, A062A/V, L074L/V, Y181C, G190E, T386A. The assay can be described thus: Antiviral activity in MT4 cells, low MOI strain selected at 15.000 μM, day 59. The settings on record: for Fold resistance: Comp. 1 15.000 μM, vs wild type; for EC50: Human immunodeficiency virus 1, MT4, Comp. 1 15.000 μM, read-out: median(EC50 (μM)). As for the experimental part:
as §1, §2, §4, §3

For assay [4], the system named is HIV-1/LAI-derived strain I031L/I, F116F/L, Y181C, G190E, T386A. The assay can be described thus: Antiviral activity in MT4 cells, low MOI strain selected at 5.000 μM, day 42. The settings on record: for Fold resistance: Comp. 1 5.000 μM, vs wild type; for EC50: Human immunodeficiency virus 1, MT4, Comp. 1 5.000 μM, read-out: median(EC50 (μM)). How it is done: as §1, §2, §4, §3

The test system of assay [5] is HIV-1/LAI-derived strain L100L/I, Y181C, T386A. The experiment in a line: Antiviral activity in acutely infected MT4 cells, strain selected at high MOI with compound 1 0.200 μM. The settings on record: for EC50: Human immunodeficiency virus 1, MT4, 600 h, day 25, read-out: median(EC50 (μM)); for Fold resistance: day 25, vs wild type. As for the experimental part: as §1, §2
(§5) Cells are infected at a high MOI (such as 1-50 CCID50/cell), corresponding to >10^9 viral RNA copies/ml. These experiments have been designed to mimic the quasi-species variability that is observed in HIV infected individuals where 10^9 to 10^10 new viruses are produced daily with a mutation rate of 10^−4 to 10^−5. The infected MT4-LTR-EGFP cells are treated with inhibitors at 40, 200 nM, 1 μM and higher for a maximum of 30 days. The cultures are subcultivated and scored on virus-induced fluorescence and cytopathicity every 3-4 days. If full virus breakthrough (100% CPE) is observed the supernatants was collected and stored (new virus strain). If no full CPE was observed the cells were subcultivated and further grown in the presence of the same concentration compound till full virus breakthrough, with a maximum of 30 days. From the emerging virus populations a virus stock was grown in the absence of compounds and titrated. The sensitivities of the isolated strains to HIV-1 RT inhibitors were determined and the strains were genotyped.
as §3

The subject of assay [6] is HIV-1/LAI-derived strain E006E/K, Y181C, M230I, T386A. The experiment in a line: Antiviral activity in MT4 cells, low MOI strain selected at 0.200 μM, day 22. Particulars: Comp. 1 0.200 μM; for Fold resistance: vs wild type; for EC50: Human immunodeficiency virus 1, MT4, 528 h, read-out: median(EC50 (μM)). How it is done:
as §1, §2, §4, §3

Assay [7] deals with HIV-1/LAI-derived strain Y181C, T386A. The assay can be described thus: Antiviral activity in MT4 cells, low MOI strain selected at 0.040 μM, day 15. The settings on record: Comp. 1 0.040 μM; for Fold resistance: vs wild type; for EC50: Human immunodeficiency virus 1, MT4, 360 h, read-out: median(EC50 (μM)). How it is done: as §1, §2, §4, §3
Assay [8] concerns HIV-1/LAI-derived strain M164M/I, Y181C, D186D/N, M230M/I, T386A. The assay can be described thus: Antiviral activity in MT4 cells, low MOI strain selected at 0.200 μM, day 28. The settings on record: Comp. 1 0.200 μM; for Fold resistance: vs wild type; for EC50: Human immunodeficiency virus 1, MT4, 672 h, read-out: median(EC50 (μM)). As for the experimental part: as §1, §2, §4, §3

The subject of assay [9] is HIV-1/LAI-derived strain Y181C, G190E, T386A. The assay can be described thus: Antiviral activity in MT4 cells, low MOI strain selected at 1.000 μM, day 35. The settings on record: for Fold resistance: Comp. 1 1.000 μM, vs wild type; for EC50: Human immunodeficiency virus 1, MT4, Comp. 1 1.000 μM, read-out: median(EC50 (μM)). As for the experimental part:
as §1, §2, §4, §3

Assay [10] deals with HIV-1/LAI. The experiment in a line: In vitro selection of resistant strains, low MOI, MT4-LTR-EGFP cells. Particulars: Y181C, T386A.
Description: as §4
(§6) In vitro drug selection experiments starting from wild-type HIV-1/LAI under pressure of compound 1, Efavirenz and Nevirapine have been performed.

Assay [11] relates to HIV-1/LAI. The experiment in a line: In vitro selection of resistant strains, high MOI, MT4-LTR-EGFP cells. Particulars: starting strain LAI, 0.200 μM, emerging L100L/I, Y181C, T386A. As for the experimental part: as §5, §6
The subject of assay [12] is HIV-1/LAI-derived strain I031L/I, Y181C, G190E, T386A. The experiment in a line: Antiviral activity in MT4 cells, low MOI strain selected at 5.000 μM, day 35. Particulars: for Fold resistance: Comp. 1 5.000 μM, vs wild type; for EC50: Human immunodeficiency virus 1, MT4, Comp. 1 5.000 μM, read-out: median(EC50 (μM)). As for the experimental part:
as §1, §2, §4, §3

With `O=C1Nc2ccc(Cl)cc2[C@@](C#CC2CC2)(C(F)(F)F)O1` [Efavirenz], the EC50 with HIV-1/LAI [1] was 0.001 µM; in assay [2], 0.209 µM; in [3] it was > 10 µM; in assay [4], 0.0442 µM; in assay [5], 0.208 µM; in [6] it was 0.0067 µM. Also, the EC50 in [7] was found to be 0.0067 µM; in assay [8], 0.0072 µM; in assay [9] it was 0.0465 µM. In addition, the Fold resistance was 1 fold with HIV-1/LAI [1]; 209 fold in assay [2]; >10,000 fold in assay [3]; 44 fold in assay [4]; 208 fold in assay [5]; 7 fold in assay [6]. Further, the values for the Fold resistance in assay [7], in assay [8] and in [9] were 7 fold, 7 fold and 46 fold, respectively.
For the compound `Cc1cc(C#N)cc(C)c1Oc1nc(Nc2ccc(C#N)cc2)nc(N)c1Br` [Compound 1, Benzonitrile, 4-[[6-amino-5-bromo-2-[(4-cyanophenyl)-amino]-4-pyrimidinyl]oxy]-3,5-dimethyl-], the EC50 is 0.0014 µM in the assay on HIV-1/LAI [1]; 0.618 µM in assay [2]; > 10 µM in [3]; 0.126 µM in assay [4]; 0.394 µM in assay [12]; 0.11 µM in assay [5]. The concentration for a half-maximal effect (EC50) in assay [6] worked out at 0.0298 µM; in [7] it was 0.0334 µM; in assay [8] it was 0.0228 µM; in assay [9], 0.217 µM. Besides, the Fold resistance is reported as 1 fold in the assay on HIV-1/LAI [1]; 441 fold in assay [2]; >7,143 fold in assay [3]; 90 fold in [4]; 282 fold in assay [12]; 78 fold in [5]. In addition, the Fold resistance in [6] is 21 fold; in [7] it was 24 fold; in assay [8] it was 16 fold; in assay [9] it was 155 fold. In addition, the Days to breakthrough entry in the assay with HIV-1/LAI [10] (0.040 μM) is recorded as “day 15”; with HIV-1/LAI [10] (0.200 μM, E006E/K, M230I), “day 22”; in the assay with HIV-1/LAI [10] (0.200 μM, M164M/I, D186D/N, M230M/I) it was “day 28”; with HIV-1/LAI [10] (1.000 μM, G190E), “day 35”; in the assay with HIV-1/LAI [10] (5.000 μM, I031L/I, F116F/L, G190E), “day 42”; in the assay on HIV-1/LAI [10] (5.000 μM, I031L/I, G190E), “day 35”. For the same compound, the Days to breakthrough result in the assay with HIV-1/LAI [10] (15.000 μM, I031L, A062A/V, L074L/V, G190E) is listed as “day 59”; in the assay with HIV-1/LAI [10] (15.000 μM, I031L, A062A/V, G190E), “day 42”; in the assay with HIV-1/LAI [11], “day 25”.
For the compound `Cc1ccnc2c1NC(=O)c1cccnc1N2C1CC1` [Nevirapine], the EC50 was 0.0763 µM in the assay with HIV-1/LAI [1]; > 10 µM in assay [2]; > 10 µM in assay [3]; > 10 µM in assay [4]; > 10 µM in assay [12]; > 10 µM in assay [6]. Besides, the EC50 in assay [7], in [8] and in assay [9] was > 10 µM in each case. Also, the Fold resistance in the assay on HIV-1/LAI [1] is 1 fold; in assay [2] it was >131 fold; in assay [3], >131 fold; in assay [4] it was >131 fold; in assay [12], >131 fold; in [6] it was >131 fold. The Fold resistance in assay [7], in assay [8] and in [9] was >131 fold in each case.
